This is an account of results in publication PMC4058747, “Structural Mechanisms Determining Inhibition of the Collagen Receptor DDR1 by Selective and Multi-Targeted Type II Kinase Inhibitors” (Journal of Molecular Biology, 2014).

For one test, the target named is T1, DDR2 (Homo sapiens, UniProt Q16832).
T1 construct: purchased Invitrogen
T1 sequence (Q16832 22-855): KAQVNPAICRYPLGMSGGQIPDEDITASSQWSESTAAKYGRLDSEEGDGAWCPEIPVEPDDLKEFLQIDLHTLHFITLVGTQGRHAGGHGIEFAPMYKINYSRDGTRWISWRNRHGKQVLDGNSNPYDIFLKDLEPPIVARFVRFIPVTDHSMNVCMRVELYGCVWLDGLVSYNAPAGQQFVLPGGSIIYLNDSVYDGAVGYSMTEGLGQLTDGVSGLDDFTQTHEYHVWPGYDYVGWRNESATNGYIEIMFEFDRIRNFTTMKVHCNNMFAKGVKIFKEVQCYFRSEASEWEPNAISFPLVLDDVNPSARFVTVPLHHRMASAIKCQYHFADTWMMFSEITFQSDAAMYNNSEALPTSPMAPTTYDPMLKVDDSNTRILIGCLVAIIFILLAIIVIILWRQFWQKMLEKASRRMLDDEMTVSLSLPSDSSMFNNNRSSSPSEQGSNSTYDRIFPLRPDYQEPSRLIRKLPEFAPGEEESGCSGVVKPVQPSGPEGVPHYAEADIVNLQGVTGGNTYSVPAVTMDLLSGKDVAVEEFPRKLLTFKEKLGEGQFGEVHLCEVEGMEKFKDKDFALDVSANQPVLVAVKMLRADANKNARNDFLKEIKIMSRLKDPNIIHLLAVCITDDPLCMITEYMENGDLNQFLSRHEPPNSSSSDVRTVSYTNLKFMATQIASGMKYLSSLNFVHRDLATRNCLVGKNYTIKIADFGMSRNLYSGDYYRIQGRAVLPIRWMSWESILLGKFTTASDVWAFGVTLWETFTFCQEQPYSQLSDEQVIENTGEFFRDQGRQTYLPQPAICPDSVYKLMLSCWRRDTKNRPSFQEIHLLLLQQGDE
The test can be described thus: LanthaScreen kinase activity assay (Invitrogen), DDR2. The following applies: read-out: Enzymatic IC50 values DDR2. It is filed as biochemical. The method, then:
(§1) IC50 values were determined by Invitrogen using a LanthaScreen kinase activity assay.
(§2) Figure S2. Inhibition of DDR1 and DDR2. (a) IC50 values for DDR1 inhibition determined by using a LanthaScreen kinase activity assay (Invitrogen). (b) IC50 values for DDR2 inhibition determined similarly.
A general note: In TR-FRET formats the signal depends on donor and acceptor labels being close together.

The target of test [1] is T2, DDR1 (Homo sapiens, UniProt Q08345).
T2 construct: purchased Invitrogen
T2 sequence (Q08345 19-913): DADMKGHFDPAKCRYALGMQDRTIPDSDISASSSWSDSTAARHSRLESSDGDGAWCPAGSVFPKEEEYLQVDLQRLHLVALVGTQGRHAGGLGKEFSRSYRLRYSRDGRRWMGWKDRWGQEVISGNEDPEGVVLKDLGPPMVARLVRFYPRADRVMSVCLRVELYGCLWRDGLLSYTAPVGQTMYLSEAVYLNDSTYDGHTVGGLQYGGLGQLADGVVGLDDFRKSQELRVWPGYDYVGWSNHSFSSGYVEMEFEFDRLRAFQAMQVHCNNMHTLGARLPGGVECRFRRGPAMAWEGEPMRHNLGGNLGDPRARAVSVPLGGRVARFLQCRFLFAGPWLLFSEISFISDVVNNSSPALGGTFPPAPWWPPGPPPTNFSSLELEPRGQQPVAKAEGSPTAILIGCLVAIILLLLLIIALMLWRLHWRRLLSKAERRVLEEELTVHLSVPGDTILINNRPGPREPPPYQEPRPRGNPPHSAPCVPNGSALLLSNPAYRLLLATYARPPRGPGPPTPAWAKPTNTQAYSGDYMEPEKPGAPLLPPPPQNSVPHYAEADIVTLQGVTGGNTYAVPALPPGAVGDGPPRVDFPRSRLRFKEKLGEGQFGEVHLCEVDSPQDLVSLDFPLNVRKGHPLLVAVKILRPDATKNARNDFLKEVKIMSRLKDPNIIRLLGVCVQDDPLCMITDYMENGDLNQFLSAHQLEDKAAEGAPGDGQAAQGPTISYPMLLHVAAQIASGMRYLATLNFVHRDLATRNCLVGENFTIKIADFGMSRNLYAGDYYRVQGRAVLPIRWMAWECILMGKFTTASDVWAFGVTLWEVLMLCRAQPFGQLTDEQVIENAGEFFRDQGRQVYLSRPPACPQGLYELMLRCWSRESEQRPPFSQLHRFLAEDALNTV
The test can be described thus: LanthaScreen kinase activity assay (Invitrogen), DDR1. It is filed as biochemical. The following applies: for pIC50: LanthaScreen kinase activity assay, read-out: Enzymatic IC50 values DDR1; for activity of analogs against DDR1 kinase activity (in words): removal of the trifluoromethyl group. The method, then:
as §1, §2

For the next test, the system named is ABL. The arrangement: method as in PMID 23899692. The following applies: quoted for selectivity relative to DDR1; cited from earlier work.
Test [2] addresses T2, DDR1. The arrangement: method as in PMID 23275061. The following applies: cited from earlier work.
The target in test [3] is T2, DDR1. The arrangement: method as in PMID 23275061. The following applies: cited from earlier work. This is another data set of the same source.

pEC50, pIC50: −log10 of the molar value. Where two headings read alike, the source gives them in different places. Some results are limits rather than exact numbers.

One may read the pIC50 as the negative decadic logarithm of the IC50, by convention in mol/L. In the case of `CCN1CCN(Cc2ccc(NC(=O)Nc3ccc(C)c(Oc4ccc5c(c4)CC(=O)N5)c3)cc2C(F)(F)F)CC1` [Compound 1], the pIC50 was 6.11 on DDR2 and 6.58 at DDR1 [1].

For the molecule `Cc1ccc(NC(=O)c2ccc(OC3CCN(C)CC3)c(C(F)(F)F)c2)cc1Oc1ccc2c(c1)CC(=O)N2` [Compound 2], the pIC50 at DDR2 is 6.47; at DDR1 [1] it was 6.94.

As for `Cc1ccc(NC(=O)c2cc(N3CCN(CCO)CC3)cc(C(F)(F)F)c2)cc1Oc1ccc2c(c1)CC(=O)N2` [Compound 3], the results for the pIC50 at DDR2 and on DDR1 [1] were 6.26 and 6.74, respectively.

As for `CCN1CCN(c2cc(C(=O)Nc3ccc(C)c(Oc4ccc5c(c4)CC(=O)N5)c3)cc(C(F)(F)F)c2)CC1` [Compound 4], the negative-log IC50 (pIC50) on DDR2 was 6.41; on DDR1 [1] it was 6.82.

Consider `Cc1ccc(NC(=O)c2cccc(C(C)(C)C#N)c2)cc1Oc1ccc2c(c1)CC(=O)N2` [Compound 5], for which the pIC50 is 5.99 on DDR2 and 6.76 at DDR1 [1].

Consider `CCN1CCN(Cc2ccc(C(=O)Nc3ccc(C)c(Oc4ccc5c(c4)CC(=O)N5)c3)c(F)c2)CC1` [Compound 6], for which, at DDR2, the pIC50 is under 5.00. Besides, at DDR1 [1], the negative logarithm of the IC50 (pIC50) is under 5.00 and the “activity of analogs against DDR1 kinase activity (in words)” value was “inactive”.

Turning to `CCN1CCN(Cc2ccc(F)c(C(=O)Nc3ccc(C)c(Oc4ccc5c(c4)CC(=O)N5)c3)c2)CC1` [Compound 7], the negative-log IC50 (pIC50) on DDR2 was under 5.00; on DDR1 [1], 5.05. For the same molecule, on DDR1 [1], the “activity of analogs against DDR1 kinase activity (in words)” value is “inactive”.

For `CCN1CCN(Cc2ccc(C(=O)Nc3ccc(C)c(Oc4ccc5c(c4)CC(=O)N5)c3)cc2C(F)(F)F)CC1` [DDR1-IN-1], the negative-log IC50 (pIC50) was 5.74 in the test with ABL and 6.38 on DDR2.

In general, pEC50 refers to the EC50 on a negative log10 scale, so that one unit is a factor of ten. With `Cc1ccc(C(=O)Nc2ccc(Oc3cc4cnn(C)c4cc3-c3cn[nH]c3)c(F)c2)c(=O)n1-c1ccc(F)cc1` [LY2801653], the negative-log EC50 (pEC50) on DDR1 [2] was over 9.00. Also, on DDR1 [3], the negative logarithm of the IC50 (pIC50) is over 9.00.
